This note sets out measurements from paper PMC9598656, “In Vitro Activity of Robenidine Analogues NCL259 and NCL265 against Gram-Negative Pathogens” (Antibiotics, 2022).

Assay [1] deals with Wild-type (E. coli BW 25113). The assay is described as follows: MIC, efflux-pump wild-type. The assay is classed as cell-based. The settings on record: Escherichia coli; Wild-type (E. coli BW 25113); read-out: MIC Values. Here is the method:
(§1) A variety of Gram-negative reference strains (E. coli ATCC 25922, E. coli ATCC 10763, P. aeruginosa PAO1, P. aeruginosa ATCC 27853, A. baumannii ATCC 12457, A. baumannii ATCC 19606, K. pneumoniae ATCC 4352 and K. pneumoniae ATCC 33495) were used for initial screening and combination testing with PMB. The organisms were speciated using biochemical testing and MALDI-TOF mass spectrometry (Bruker, Preston, VIC, Australia). Activity testing of NCL259 and NCL265 was also carried out on 51 extraintestinal clinical E. coli isolates from companion animals, and 83 porcine and bovine enterotoxigenic E. coli (ETEC) isolates from the Australian Centre for Antimicrobial Resistance Ecology collection. E. coli wild-type (BW 25113) and its mutant BW 25113∆AcrB, in which the inner membrane component AcrB of the tripartite multidrug efflux system AcrA/AcrB/TolC has been deleted, were obtained from the bacterial collection held at Health and Biomedical Innovation, Clinical and Health Sciences, The University of South Australia. All isolates were cultured on sheep blood agar (SBA) plates at 37 °C for 18 h before being subcultured into Luria Bertaini (LB) (Oxoid, Scoresby, VIC, Australia) broth and grown to A600nm = 0.5 (equivalent to approx. 1.5 × 10^8 colony-forming units (CFU)/mL).
MICs for NCL259 and NCL265 (serial two-fold dilutions commencing at 256 µg/mL) were determined (in duplicate) in round bottom 96–well microtitre trays (Sarstedt 82.1582.001), using the broth micro-dilution method recommended by the Clinical and Laboratory Standards Institute (CLSI). We have shown previously that robenidine can chelate calcium ions from cation-adjusted Mueller-Hinton broth, which causes the loss of activity of robenidine. Therefore, LB broth was used in this study. […] The MIC for ampicillin against each isolate was determined for each test to serve as an internal quality control. The MICs of isolates were determined by visual reading and using an EnSpire Multimode Plate Reader 2300 at A600nm.

The next assay concerns E. coli BW 25113 (∆AcrB). The assay can be described thus: MIC, efflux-pump mutant. The assay is classed as cell-based, Escherichia coli. Conditions: Escherichia coli, read-out: MIC Values. As to the method: as §1
MICs for NCL259 and NCL265 (serial two-fold dilutions commencing at 256 µg/mL) were determined (in duplicate) in round bottom 96–well microtitre trays (Sarstedt 82.1582.001), using the broth micro-dilution method recommended by the Clinical and Laboratory Standards Institute (CLSI). We have shown previously that robenidine can chelate calcium ions from cation-adjusted Mueller-Hinton broth, which causes the loss of activity of robenidine. Therefore, LB broth was used in this study. Additionally, considering the low solubility of robenidine and its analogues in aqueous solutions, two-fold serial dilutions of stock solutions of these compounds were prepared in 100% DMSO [21]. The MIC for ampicillin against each isolate was determined for each test to serve as an internal quality control. The MICs of isolates were determined by visual reading and using an EnSpire Multimode Plate Reader 2300 at A600nm.

As to `CC[C@H]1OC(=O)[C@H](C)[C@@H](O[C@H]2C[C@@](C)(OC)[C@@H](O)[C@H](C)O2)[C@H](C)[C@@H](O[C@@H]2O[C@H](C)C[C@H](N(C)C)[C@H]2O)[C@](C)(O)C[C@@H](C)C(=O)[C@H](C)[C@@H](O)[C@]1(C)O` [Erythromycin, reference compound], the MIC in assay [1] was above 128 µg/mL; in the assay on E. coli BW 25113 (∆AcrB), 2 µg/mL.
